One data set has as its system uninfected CEM cells. As to conditions: human, 7200 min.
For a further data set, the system named is CEM-SS cells. The data set can be described thus: cellular toxicity in CEM-SS cells, XTT assay. It is filed as cell-based. As to conditions: human, 144 h. The source says: CEM-SS cells were obtained from Owen Weislow at the National Cancer Institute.
Another data set in a line: solubility in solvents. It is filed as physicochemical.
Data set [1] concerns human immunodeficiency virus (HIV) LAV/BRU. As to conditions: CEM-F cells; reduces viral replication by 50%.
Procedure: AZT was included as a reference compound. The methodology used in this assay is described below:
The cells and the virus were grown in LAV/CEM medium. The medium consists of RPMI 1640, supplemented with 1% L-glutamine, 100 U/ml of Penicillin, 100 μg/ml Streptomycin, 2 μg/ml Polybrene and 10% heat-inactivated fetal bovine serum (HyClone Labs). […] The LAV/BRU of human immunodeficiency virus (HIV) was obtained from Dr. L. Montagnier, Institute Pasteur, Paris, France. The virus was adapted to CEM cells, and infectious virus stocks were stored as cell-free supernatant fluids in 1 ml aliquots in liquid nitrogen. The titer of the stock was determined by an end point titration method using CEM cells in 96-well microtiter plates. The titration was done with ten replicates for each point, and the 50% tissue culture infective dose (TCID50) was calculated using the method of Reed and Muench (Amer. J. Hygiene, 27/3 (1938) 493-497).
25 The CEM cells (1.5×10^5 cells/ml) were placed in 96-well plates and incubated with virus for 45 minutes. After 45 minutes each compound was added in quadruplicate. […] The OD readings (absorbance at 450/630 nm) fall into three categories: Experimentals=values from wells containing cells, viral inoculum and drug; Controls=values from wells with cells and virus (100%); and Background=values from wells with viral inoculum alone. […]
The subject of data set [2] is reverse transcriptase (RTase) derived from avian myeloblastosis virus (AMV). It is filed as biochemical. The following applies: concentrations higher than 3 μg/ml; 1 unit of AMV RTase.
The next data set concerns HIV antigen. The data set can be described thus: expression of HIV antigen in infected MT-4 cells by immunofluorescence. It is filed as cell-based. As to conditions: HIV-infected MT-4 cells; concentration higher than 50 μg/ml. Here is the method:
Expression of HIV antigen was examined by immunofluorescence. When MT-4 cells were infected with HIV, viral antigen positive cells increased with incubation time and all the cells became positive on day 6 after infection.

Some results are limits rather than exact numbers.

Procedure for uninfected CEM cells: The cells and the virus were grown in LAV/CEM medium. The medium consists of RPMI 1640, supplemented with 1% L-glutamine, 100 U/ml of Penicillin, 100 μg/ml Streptomycin, 2 μg/ml Polybrene and 10% heat-inactivated fetal bovine serum (HyClone Labs).
The toxicities of the drugs were tested against uninfected CEM cells. The CEM cells were plated as described above, and culture for five days in the presence or absence of drugs. On day five 1 μCi/well of ^3 H-thymidine was added, and cells were harvested 3 hours later. The results are expressed as toxic dose 50 (TD50) and represent the amount of drug necessary to reduce the cell proliferation by 50% as measured through thymidine incorporation.

In the case of `Cc1cn([C@H]2C[C@H](N=[N+]=[N-])[C@@H](CO)O2)c(=O)[nH]c1=O` [AZT, reference compound], the “TD50, thymidine incorporation” value in the data set with uninfected CEM cells worked out at 4.2 µg.

Turning to `C/C1=C\C=C\C2C=C(CO[C@H]3O[C@H](CO)[C@H](O)[C@H](O)[C@H]3O)C(C)CC23OC(O)C(C3=O)C(O)/C=C/C2(C)C=C(CO)C(C)CC23OC(O)C(C3=O)C(O)/C(C)=C/C=C/C2(C)C=C(CO[C@H]3O[C@H](CO)[C@H](O)[C@H](O)[C@H]3O)C(C)CC23OC(O)C(C3=O)C(O)/C=C/C2(C)C=C(C=O)C(C)CC23OC(O)C(C3=O)C1O` (some centres unmarked), the “TD50, XTT assay” value with CEM-SS cells is 200 µg/mL. The “TD50, thymidine incorporation” value in the data set with uninfected CEM cells was above 100 µg. The “solubility in dimethylformamide and dimethyl sulfoxide” value in “solubility in solvents” was “soluble”. Also, the “ED50, p24gag antigen capture assay” value in data set [1] was determined as 2.5 µg.

In the case of `C/C1=C\C=C\C2(C)C=C(CO[C@H]3O[C@H](CO)[C@H](O)[C@H](O)[C@H]3O)C(C)CC23OC(O)C(C3=O)C(O)/C=C/C2(C)C=C(C=O)C(C)CC23OC(O)C(C3=O)C(O)/C(C)=C/C=C/C2C=C(CO[C@H]3O[C@H](CO)[C@H](O)[C@H](O)[C@H]3O)C(C)CC23OC(O)C(C3=O)C(O)/C=C/C2(C)C=C(C=O)C(C)CC23OC(O)C(C3=O)C1O` (some centres unmarked), in the data set with CEM-SS cells, the “TD50, XTT assay” value turned out to be 300 µg/mL. Besides, in the data set with uninfected CEM cells, the “TD50, thymidine incorporation” value was above 100 µg. The “inhibition of AMV RTase activity” value in data set [2] is recorded as “more than 95%”. Also, the “solubility in dimethylformamide and dimethyl sulfoxide” value in “solubility in solvents” is on record as “soluble”. Moreover, the “HIV antigen positive cells” value with HIV antigen was “less than 1%”. Besides, the “ED50, p24gag antigen capture assay” value in data set [1] is 3.2 µg.

For the origin of these results see US5124150A.
